Laboratory results as given in patent US20190175783A1, “High-Throughput Method for Detecting Tooth Stain Prevention and Removal” (Johnson & Johnson Consumer Inc., priority 2017, published 2019).

Assays:
[1] = Stain removal test (450 nm absorbance of stain removed)
Protocol: • 1. Form a pellicle coat on hydroxyapatite (HAp) particles by mixing the particles with saliva and incubating the mixture. • 2. Transfer HAp particle/saliva suspension into a large batch filter container. • 3. Filter the saliva supernatant to waste. • 4. Stain particles by adding a stain solution directly to the filter container and incubate. • 5. Transfer stained, pellicle coated HAp particle suspension into filter container. • 6. Filter the stained, pellicle coated HAp particles, sending the supernatant to waste. • 7. Re-suspend stained, pellicle coated HAp particles in water, and optionally store for future testing. • 8. Prepare stained, pellicle coated HAp particles for treatment. • 9. Treat stained HAp particles. • 10. Filter and collect the supernatant. • 11. Make UV-Vis absorbance measurements on collected supernatant.
A mass of one gram of hydroxyapatite powder (Bio-Rad, Hercules, Calif., catalogue 1570020) was suspended in artificial saliva (Northeast Laboratories, Winslow, Me., catalogue no. T0300) at a concentration of 10 milligram/100 microliter and allowed to incubate for 15 minutes at 37° C. to form a pellicle coating. The supernatant was filtered out from the particles. The particles were re-suspended in 10% instant coffee stain solution at a concentration of 10 milligram/100 microliter and incubated at 37° C. for 30 minutes. The coffee solution was removed by filtration and the particles were washed of any loosely bound stain. The now coffee stained, pellicle coated hydroxyapatite particles were suspended in water at a concentration of 10 milligram/100 microliter. A volume of 100 microliter per sample was aliquoted into respective filter vesicle (96-well filter plate or filter tube) and the supernatant was filtered out from the particles (n=3 per sample). The treatment solutions were prepared within a range of 0% to 2% polyphosphate solution in water. The stock 2% w/v solution was serial diluted 1:1 in water to achieve treatment concentrations of polyphosphates of 1%, 0.5%, 0.25%, 0.125%, 0.0625%, and 0.03125% w/v. The 0% solution was a water control. After, the stained hydroxyapatite particles were exposed to 200 microliter of respective treatment for 1 or 2 minutes at room temperature with agitation (120 rpm). The polyphosphate treatment solutions ranged from 0.031% to 2% w/v. A negative control, using distilled water as the treatment solution, was tested as a comparison to the polyphosphate treatment solutions. […] Subsequently, absorbance measurements (Tecan, Infinite M200 Pro) were made between 230 and 1000 nm with a 10 nm step increase between measurements. The absorbance at 450 nm was used as a measure of stain removed, where higher absorbance values indicated more stain displaced from the hydroxyapatite particles.

[2] = Stain prevention test (450 nm absorbance of stain displaced after pre-treatment)
Protocol: Stain Prevention Test Procedure: • 1. Form a pellicle coat on hydroxyapatite (HAp) particles by mixing the particles with saliva and incubating the mixture. • 2. Transfer HAp particle/saliva suspension into a large batch filter container. • 3. Filter the saliva supernatant to waste. • 4. Treat pellicle coated HAp particles, sending the supernatant to waste. • 5. Filter the treated, pellicle coated HAp particles, sending the supernatant to waste. • 6. Stain the pre-treated pellicle coated HAp particles by adding a stain solution directly to the filter container and incubate. • 7. Wash any loosely bound stain off the pre-treated, pellicle coated HAp particles. • 8. Elute the stain from the stained, pre-treated, pellicle coated HAp particles 5% PPi solution. • 9. Filter and collect supernatant. • 10. Make UV-Vis absorbance measurements on collected supernatant.
A mass of 1 gram of hydroxyapatite particles (Bio-Rad, Hercules, Calif., catalogue 1570020) was suspended in artificial saliva at a concentration of 10 milligram/100 microliter and allowed to incubate for 15 minutes at 37° C. to form a pellicle coating. A volume of 100 microliter per sample was aliquoted into respective filter vesicle (96-well filter plate or filter tube) and the supernatant was filtered out from the particles (n=3 per sample treatment). The treatment solutions were prepared within a range of 0% to 2% polyphosphate solution in water. The stock 2% w/v solution was serial diluted 1:1 in water to achieve treatment concentrations of polyphosphates of 1%, 0.5%, 0.25%, 0.125%, 0.0625%, and 0.03125% w/v. The 0% solution was a water control. The pellicle coated hydroxyapatite particles were exposed to 200 microliter of treatment solution of polyphosphate for at least 1 minute at room temperature with agitation (120 rpm). The treatment was removed by filtration and the particles were exposed to 100 microliter of a 10% instant coffee stain solution and incubated at 37° C. for 30 minutes. The coffee was removed by filtration and the particles were washed of any loosely bound stain. The residual stain on the particles was displaced with 200 microliter of an alkaline 5% pyrophosphate solution by incubating at room temperature for 10 minutes. The displaced stain was collected in a 96-well plate and absorbance measurements were made (Tecan, Infinite M200 Pro) between 230 and 1000 nm with a 10 nm step increase between measurements. The absorbance at 450 nm was used as a measure of stain prevention, with the lower absorbance values indicating more stain prevented from attaching to hydroxyapatite particle.

[3] = concentration from 0.500% to 2.00%
[4] = concentration increased from 0.031% to 0.500%

polyphosphate [polyphosphate solutions]
stain removal, effect of treatment time ([1]; 1 versus 2 minute treatments): no significant difference
level of stain removal (450 nm absorbance) [1, 3]: remained constant
stain removal (450 nm absorbance) [1, 4]: stain removal increased
450 nm absorbance values of stain removed as a function of concentration ([1]; polyphosphate 0.031% to 2% w/v in water, 1- and 2-minute treatments, 10% instant coffee stain, FIG. 1): clear dose response
stain prevention, effect of pre-treatment time ([2]; 1-, 2- and 10-minute stain prevention pre-treatments): no significant difference
level of stain removal (450 nm absorbance of displaced stain) [2, 3]: remained constant
stain prevention (450 nm absorbance) [2, 4]: stain prevention increased
450 nm absorbance values of stain displaced as a function of concentration ([2]; polyphosphate 0.031% to 2% w/v in water, 1-, 2- and 10-minute pre-treatments, 10% instant coffee stain, FIG. 2): clear dose response
